Measurements taken from article PMC7083937, “The ribosome-associated complex RAC serves in a relay that directs nascent chains to Ssb” (Nature Communications, 2020).

Key:
[1] = target: T1, ScSsz1-Zuo1N complex (Saccharomyces cerevisiae, UniProt P32527+P38788); test: fluorescence anisotropy peptide binding; settings: N-terminally fluorescein-labelled peptide, 40 nM mixed 1:1 with protein, pH 7.5, 200 mM KCl, 30 min, room temperature, Ssz1-Zuo1N
T1 construct: His6-SUMO (N); made in house
T1 sequence (P38788 1-538): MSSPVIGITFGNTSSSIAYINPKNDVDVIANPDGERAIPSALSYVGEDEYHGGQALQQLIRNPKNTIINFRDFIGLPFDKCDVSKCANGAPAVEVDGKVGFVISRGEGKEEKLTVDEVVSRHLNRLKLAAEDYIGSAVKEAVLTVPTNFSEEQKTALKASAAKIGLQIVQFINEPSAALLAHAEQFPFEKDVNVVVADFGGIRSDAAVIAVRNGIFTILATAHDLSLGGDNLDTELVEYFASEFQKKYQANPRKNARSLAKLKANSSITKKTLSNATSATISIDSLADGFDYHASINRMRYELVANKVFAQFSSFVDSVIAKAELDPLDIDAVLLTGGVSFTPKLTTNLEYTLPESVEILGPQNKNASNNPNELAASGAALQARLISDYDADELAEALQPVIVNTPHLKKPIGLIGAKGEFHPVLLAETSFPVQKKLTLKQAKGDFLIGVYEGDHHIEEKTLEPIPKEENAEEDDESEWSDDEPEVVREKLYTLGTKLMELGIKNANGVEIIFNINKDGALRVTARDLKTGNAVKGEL
T1 sequence (P32527 1-50 partner): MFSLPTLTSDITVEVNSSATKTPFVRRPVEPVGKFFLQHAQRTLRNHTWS
Procedure: (§1) 1 µM BSA was added to prevent unspecific binding of the fluorescently labelled peptide to the microplate (Greiner Bio-One opaque 384 well plate). Fluorescence anisotropy measurements were performed using the LP-peptide (MFSLPTL) or the NR-peptide (NRLLLTG) labelled at the N terminus with fluorescein (Peptide Specialty Laboratories GmbH, Heidelberg). Two-fold serial dilutions of each protein (ScSsz1-Zuo1N or ScSsz1-Zuo1NΔLP) were mixed in a 1:1 ratio with 40 nM peptides in anisotropy buffer in 384-well opaque plates (Greiner Bio One) and were incubated at room temperature for 30 min. Measurements were performed in triplicate using a plate reader (SpectraMax M5e Multi Mode Microplate reader, Molecular Devices). To determine the binding constant (KD) the data were fitted to a one-site binding equation using Python[57].
(§2) Ssz1-Zuo1NΔLP Ssz1-Zuo1NΔLP
(§3) Supplementary Figure 6. Figure S6
(§4) An al ysi s o f su b strate b in di ng to ScRAC co re vari ants b y fl uo rescen ce an i so trop y.
(§5) (a) Binding curves of the fluorescently labeled LP-pept ide or (b ) NR-peptide to Ssz1-Zuo1N (circle) or
(§6) Ssz1-Zuo1NDLP (square) are shown. The mean and standard deviation from three technical replicates
(§7) is indicated. Source data are provided as a Source Data file.

[2] = target: T2, ScSsz1-Zuo1NΔLP complex (Saccharomyces cerevisiae, UniProt P32527+P38788); type: binding; settings: fluorescence anisotropy; N-terminally fluorescein-labelled peptide, 40 nM mixed 1:1 with protein; pH 7.5, 200 mM KCl; 30 min, room temperature; Ssz1-Zuo1NΔLP
T2 construct: His6-SUMO (N); made in house
Procedure: as §1, §2, §3, §4, §5, §6, §7

[3] = test system: Ssz1 in RAC-ΔN8; test: peptide competition with nascent chain crosslinking (XL-Ssz1); type: biochemical, Saccharomyces cerevisiae
Excerpt: Fig. 3 Nascent chain binding to the Ssz1-SBD is modulated by the N-terminus of Zuo1. a Amino acid sequence of the ScZuo1N. Arrows indicate the positions of truncations in Zuo1-ΔN8, Zuo1-ΔN16, and Zuo1-ΔN49. The color code is as in Fig. 2a. The secondary structure derived from the crystal structure is depicted above. b The Zuo1N LP-motif interferes with the contact of nascent Pgk1-100 with Zuo1 and Ssz1. Ribosome-free extracts obtained from Δssb1Δssb2 (Zuo1, Ssz1), Δssb1Δssb2 RAC-ΔN8 (ΔN8, Ssz1), or Δssb1Δssb2 RAC-ΔN16 (ΔN16, Ssz1) strains (upper panel) were added to RNCs from Δssb1Δssb2Δzuo1Δssz1 translation extract prior to crosslinking. Crosslink products between Zuo1 and nascent Pgk1-100 (XL-Zuo1) and Ssz1 and nascent Pgk1-100 (XL-Ssz1), respectively. c, d Quantification of crosslinking between nascent Pgk1-100 and Zuo1 (c) and Ssz1 (d). Autoradiographs as shown in (b) were employed for the quantification of nascent Pgk1-100 and the crosslink products XL-Zuo1 and XL-Ssz1. Values were normalized as described in Methods. The efficiency of crosslinking is given as a percentage of nascent Pgk1-100 present in the reaction. Experiments were performed in triplicate, with the exception of the XL-Zuo1-ΔN8 (shown in c), which was performed only once. Shown is the mean (bars) and the result of each biologically independent experiment (dots). Error bars indicate the standard deviation of the mean. e Crosslinking of the nascent chain to Ssz1 requires a functional peptide binding groove. Ribosome-free extracts from Δssb1Δssb2 RAC-ΔN8 (Zuo1-ΔN8, Ssz1) or Δssb1Δssb2 RACmut-ΔN8 (Zuo1-ΔN8, Ssz1mut) (upper panel) was added to RNCs generated in Δssb1Δssb2Δzuo1Δssz1 translation extract as described in Fig. 1b. […] RNCs were generated in a Δssb1Δssb2Δzuo1Δssz1 translation extract and ribosome-free extract from Δssb1Δssb2 RAC-ΔN8 (Zuo1-ΔN8, Ssz1) was added. […]
(§8) Chemical crosslinking of ribosome-bound nascent chains to Ssb, Zuo1, or Ssz1 was analyzed essentially as described. […] Samples were analyzed on Tris-Tricine gels[56] followed by autoradiography. […]

[4] = target: ATP-bound DnaK; settings: read-out: affinity for ATP-bound DnaK, low-affinity state; cited from earlier work
[5] = test system: Zuo1-ΔN8; test: peptide competition with nascent chain crosslinking (XL-Zuo1); type: biochemical, Saccharomyces cerevisiae; settings: RNCs Pgk1-100, RAC-ΔN8, Δssb; peptide added prior to 400 µM BS3 crosslinking, 5 or 50 µM
Excerpt: Fig. 3 Nascent chain binding to the Ssz1-SBD is modulated by the N-terminus of Zuo1. a Amino acid sequence of the ScZuo1N. Arrows indicate the positions of truncations in Zuo1-ΔN8, Zuo1-ΔN16, and Zuo1-ΔN49. The color code is as in Fig. 2a. The secondary structure derived from the crystal structure is depicted above. b The Zuo1N LP-motif interferes with the contact of nascent Pgk1-100 with Zuo1 and Ssz1. Ribosome-free extracts obtained from Δssb1Δssb2 (Zuo1, Ssz1), Δssb1Δssb2 RAC-ΔN8 (ΔN8, Ssz1), or Δssb1Δssb2 RAC-ΔN16 (ΔN16, Ssz1) strains (upper panel) were added to RNCs from Δssb1Δssb2Δzuo1Δssz1 translation extract prior to crosslinking. Crosslink products between Zuo1 and nascent Pgk1-100 (XL-Zuo1) and Ssz1 and nascent Pgk1-100 (XL-Ssz1), respectively. c, d Quantification of crosslinking between nascent Pgk1-100 and Zuo1 (c) and Ssz1 (d). Autoradiographs as shown in (b) were employed for the quantification of nascent Pgk1-100 and the crosslink products XL-Zuo1 and XL-Ssz1. Values were normalized as described in Methods. The efficiency of crosslinking is given as a percentage of nascent Pgk1-100 present in the reaction. […]
as §8

## NRLLLTG [NR-peptide, NRLLLTG peptide, serves as an Hsp70 model substrate]
[1]
  affinity: below the detection limit
[2]
  affinity: below the detection limit
[3]; 50 µM peptide, ribosome-bound nascent chain
  displacement of nascent chain: partly displaced
[3]; RNCs Pgk1-100, RAC-ΔN8, Δssb, peptide added prior to 400 µM BS3 crosslinking, 5 or 50 µM
  effect on nascent chain crosslinking to Ssz1 (XL-Ssz1): to a lesser extent also NR-peptide, significantly reduced crosslinking of the nascent chain to Ssz1
[3]; ribosome-bound nascent chain, 50 µM peptide
  displacement compared with LP-peptide: significantly lower
[4]
  Kd: 23.8 ± 3.8 µM
[5]
  effect on nascent chain crosslinking to Zuo1-ΔN8 (XL-Zuo1): Neither of the peptides added prior to the crosslinking reaction affected nascent chain crosslinking to Zuo1-ΔN8
